Data on 25 molecules can be found in BindingDB's records for doi:10.1021/jm051134w (Parion Sciences, 2006).

This experiment has as its target Amiloride-sensitive sodium channel (Canis familiaris). The experiment can be described thus: Inhibition of dog bronchi prototypical epithelial sodium channel by electrophysiological assay.
On to `NC(=NCCCCc1ccc(CO)cc1)NC(=O)c1nc(Cl)c(N)nc1N` [N-(3,5-diamino-6-chloropyrazine-2-carbonyl)-N'-[4-(4-hydroxymethylphenyl)-butyl]guanidine], for which 14 nM corresponded to half-maximal inhibition (IC50).

Take `NC(=NCCCc1ccc(O)cc1)NC(=O)c1nc(Cl)c(N)nc1N` [N-(3,5-diamino-6-chloropyrazine-2-carbonyl)-N'-[3-(4-hydroxyphenyl)propyl]-guanidine]: the IC50 was 88 nM.

Regarding `NC(=NCCCCc1ccc(OCCCO)cc1)NC(=O)c1nc(Cl)c(N)nc1N` [N-(3,5-diamino-6-chloropyrazine-2-carbonyl)-N'-{4-[4-(3-hydroxypropoxy)phenyl]-butyl}guanidine], the IC50 came out at 7 nM.

The molecule `COc1ccc(CCCN=C(N)NC(=O)c2nc(Cl)c(N)nc2N)cc1` [N-(3,5-diamino-6-chloropyrazine-2-carbonyl)-N'-[3-(4-methoxyphenyl)propyl]-guanidine] had an IC50 of 124 nM.

`NC(=NCCc1ccc(O)cc1)NC(=O)c1nc(Cl)c(N)nc1N` [N-(3,5-diamino-6-chloropyrazine-2-carbonyl)-N'-[2-(4-hydroxyphenyl)ethyl]-guanidine] registered an IC50 of 62 nM.

`NC(=NCCCCCc1ccccc1)NC(=O)c1nc(Cl)c(N)nc1N` [N-(3,5-diamino-6-chloropyrazine-2-carbonyl)-N'-(5-phenylpentyl)guanidine] displayed an IC50 of 68 nM.

On to `NC(=NCCCCc1ccccc1)NC(=O)c1nc(Cl)c(N)nc1N` [N-(3,5-diamino-6-chloropyrazine-2-carbonyl)-N'-(4-phenylbutyl)guanidine], for which inhibition was half-maximal at 29 nM (IC50).

`NC(=NCCCCc1cccc(O)c1)NC(=O)c1nc(Cl)c(N)nc1N` [N-(3,5-diamino-6-chloropyrazine-2-carbonyl)-N'-[4-(5-hydroxyphenyl)butyl]-guanidine] registered an IC50 of 20 nM.

Turning to `COc1ccc(CCCCN=C(N)NC(=O)c2nc(Cl)c(N)nc2N)cc1` [N-(3,5-diamino-6-chloropyrazine-2-carbonyl)-N'-[4-(4-methoxyphenyl)butyl]-guanidine], the IC50 was determined as 15 nM.

Molecule `NC(=NCCCCc1ccc(C(=O)O)cc1)NC(=O)c1nc(Cl)c(N)nc1N` [4-{4-[N'-(3,5-diamino-6-chloropyrazine-2-carbonyl)guanidino]-butyl}benzoic acid] gave an IC50 of 51 nM.

The molecule `CCCCCCCCN=C(N)NC(=O)c1nc(Cl)c(N)nc1N` [N-(3,5-diamino-6-chloropyrazine-2-carbonyl)-N'-octylguanidine] registered an IC50 of 108 nM.

Molecule `NC(=NCCCCCCCCc1ccccc1)NC(=O)c1nc(Cl)c(N)nc1N` [N-(3,5-diamino-6-chloropyrazine-2-carbonyl)-N'-(8-phenyloctyl)guanidine] displayed an IC50 of 477 nM.

In turn, `NC(=NCCCOc1ccc(O)cc1)NC(=O)c1nc(Cl)c(N)nc1N` [N-(3,5-diamino-6-chloropyrazine-2-carbonyl)-N'-[3-(4-hydroxyphenoxy)propyl]-guanidine] displayed an IC50 of 32 nM.

For `COC(=O)c1ccc(CCCCN=C(N)NC(=O)c2nc(Cl)c(N)nc2N)cc1` [4-{4-[N'-(3,5-diamino-6-chloropyrazine-2-carbonyl)guanidino]-butyl}benzoic acid methyl ester], the IC50 was 22 nM.

Regarding `NC(=NCCCCc1ccccc1OCC(O)CO)NC(=O)c1nc(Cl)c(N)nc1N` (stereo not given) [N-(3,5-diamino-6-chloropyrazine-2-carbony)-N'-{4-[2-(2,3-dihydroxypropoxy)-phenyl]butyl}guanidine], the IC50 came to 28 nM.

The molecule `COc1ccc(COCCN=C(N)NC(=O)c2nc(Cl)c(N)nc2N)cc1` [N-(3,5-diamino-6-chloropyrazine-2-carbonyl)-N'-[2-(4-methoxybenzyloxy)ethyl]-guanidine] displayed an IC50 of 41 nM.

Take `NC(=NCCO)NC(=O)c1nc(Cl)c(N)nc1N` [N-(3,5-diamino-6-chloropyrazine-2-carbonyl)-N'-(2-hydroxyethyl)guanidine]: it took 107 nM to reach half-maximal inhibition (IC50).

In turn, `NC(=NCCCCc1ccccc1OCCO)NC(=O)c1nc(Cl)c(N)nc1N` [N-(3,5-diamino-6-chloropyrazine-2-carbonyl)-N'-{4-[2-(2-hydroxyethoxy)phenyl]-butyl}guanidine] came in with a half-inhibitory concentration (IC50) of 31 nM.

On to `NC(=NCCCCc1ccc(N)cc1)NC(=O)c1nc(Cl)c(N)nc1N` [1-(4-(4-aminophenyl)butyl)-3-(3,5-diamino-2-chloropyrazine-6-carbonyl)guanidine], for which half-maximal inhibition (IC50) required 21 nM.

For `NC(=NCCCCc1cccc(OCC(O)CO)c1)NC(=O)c1nc(Cl)c(N)nc1N` (stereo not given) [N-(3,5-diamino-6-chloropyrazine-2-carbony)-N'-{4-[3-(2,3-dihydroxypropoxy)-phenyl]butyl}guanidine], half-maximal inhibition (IC50) required 26 nM.

`NC(=NCCCCc1cccc(OCCO)c1)NC(=O)c1nc(Cl)c(N)nc1N` [N-(3,5-diamino-6-chloropyrazine-2-carbonyl)-N'-{4-[3-(2-hydroxyethoxy)phenyl]-butyl}guanidine] yielded a half-inhibitory concentration (IC50) of 17 nM.

For the molecule `NC(=NCCCCc1ccc(OC2O[C@H](C(=O)O)[C@@H](O)[C@H](O)[C@H]2O)cc1)NC(=O)c1nc(Cl)c(N)nc1N` (stereo not given in full) [6-(4-{4-[N'-(3,5-diamino-6-chloropyrazine-2-carbonyl)-guanidino]butyl}phenoxy)-3,4,5-trihydroxytetrahydropyran-2-carboxylic acid], 73 nM corresponded to half-maximal inhibition (IC50).

`CCCCCCN=C(N)NC(=O)c1nc(Cl)c(N)nc1N` [N-(3,5-diamino-6-chloropyrazine-2-carbonyl)-N'-hexylguanidine] registered an IC50 of 87 nM.

Molecule `COc1ccc(CCCCCN=C(N)NC(=O)c2nc(Cl)c(N)nc2N)cc1` [N-(3,5-diamino-6-chloropyrazine-2-carbonyl)-N'-[5-(4-methoxyphenyl)pentyl]-guanidine] displayed an IC50 of 77 nM.

Take `NC(=NCCCCc1ccc(OCCO)cc1)NC(=O)c1nc(Cl)c(N)nc1N` [N-(3,5-diamino-6-chloropyrazine-2-carbonyl)-N'-{4-[4-(2-hydroxyethoxy)phenyl]-butyl}guanidine]: half-maximal inhibition (IC50) required 9 nM.
